Active and inactive are the calls of the source. No cut-off for these calls is given here. Bridge positions count the residues as written; N and C are the ends. Square brackets hold non-standard residues; d marks the D form. Peptide text beside a SMILES is read from it. ξ: configuration not given here. ξNle = CCCCC(N)C(=O)O
Tests used:
Leishmania infantum [1] = assay: Drug localization in Leishmania infantum MCAN/ES/89/IPZ229/1/89 promastigotes after 24 hrs by fluorescence microscopic method; type: ADME; conditions: in vivo
Leishmania infantum [2] = assay: Drug localization in Leishmania infantum MCAN/ES/89/IPZ229/1/89 promastigotes flagellum after 4 hrs by fluorescence microscopic method; type: ADME; conditions: in vivo
Trypanothione reductase [3] = biological target: T1, Trypanothione reductase (Leishmania infantum, UniProt A4HSF7); assay: Inhibition of recombinant His/FLAG-tagged Leishmania infantum TryR dimerization assessed as dimer disruption after 1 hr by ELISA
Leishmania infantum [4] = assay: Antileishmanial activity against Leishmania infantum axenic amastigotes assessed as induction of cell death at 25 uM after 24 hrs by propidium iodide staining based flow cytometry; type: functional
[5] = Stability assessed as Tritirachium album proteinase K- mediated compound degradation by measuring half life at 100 uM by HPLC method; type: ADME; conditions: parengyodontium album
Trypanothione reductase [6] = biological target: T1, Trypanothione reductase; assay: Inhibition of recombinant Leishmania infantum TryR preincubated for 10 mins followed by T[S]2 substrate addition and measured after 1 hr in presence of NADPH
Leishmania infantum [7] = assay: Antileishmanial activity against Leishmania infantum MCAN/ES/89/IPZ229/1/89 promastigotes assessed as induction of cell death at 25 uM after 24 hrs by propidium iodide staining based flow cytometry; type: functional

T1 sequence (A4HSF7 whole entry): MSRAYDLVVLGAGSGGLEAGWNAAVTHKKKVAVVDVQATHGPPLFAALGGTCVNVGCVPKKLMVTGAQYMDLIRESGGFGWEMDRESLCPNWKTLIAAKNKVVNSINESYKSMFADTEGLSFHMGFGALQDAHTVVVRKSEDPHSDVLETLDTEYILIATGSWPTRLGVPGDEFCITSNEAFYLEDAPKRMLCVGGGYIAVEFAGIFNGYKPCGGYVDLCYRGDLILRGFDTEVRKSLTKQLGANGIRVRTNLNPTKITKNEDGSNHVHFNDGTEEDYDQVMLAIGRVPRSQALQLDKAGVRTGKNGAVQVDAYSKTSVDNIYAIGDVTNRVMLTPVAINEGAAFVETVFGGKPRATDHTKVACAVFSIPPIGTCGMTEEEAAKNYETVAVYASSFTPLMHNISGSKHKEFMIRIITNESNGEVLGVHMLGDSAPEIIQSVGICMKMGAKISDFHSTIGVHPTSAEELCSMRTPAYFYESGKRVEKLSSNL

Drug uptake (Leishmania infantum [1]) | Drug uptake (Leishmania infantum [2]) | SMILES | IC50 (Trypanothione reductase [3]) | Activity (Leishmania infantum [4]) | half-life at 100 µM [5] | IC50 (Trypanothione reductase [6]) | Activity (Leishmania infantum [7])
Active | Active | CCCCC(NC(=O)[C@H](CCCCN)NC(=O)C(CCCC)NC(=O)[C@H](CO)NC(=O)[C@@H](NC(=O)CNC(=O)[C@@H](NC(=O)[C@H](CO)NC(=O)[C@H](CCC(N)=O)NC(=O)[C@@H](NC(=O)[C@@H](NC(=O)[C@H](CCCCN)NC(=O)[C@@H]1CCCN1C(=O)COCCOCCNC(=S)Nc1ccc(-c2c3ccc(=O)cc-3oc3cc(O)ccc23)c(C(=O)O)c1)[C@@H](C)CC)[C@@H](C)CC)C(C)C)[C@@H](C)CC)C(=O)N[C@H](CCCNC(=N)N)NC(=O)[C@H](CCCNC(=N)N)NC(=O)[C@H](CCCNC(=N)N)NC(=O)[C@H](CCCNC(=N)N)NC(=O)[C@H](CCCNC(=N)N)NC(=O)[C@H](CCCNC(=N)N)NC(=O)[C@H](CCCNC(=N)N)NC(=O)[C@H](CCCNC(=N)N)NC(=O)[C@@H](N)CCCNC(=N)N (stereo partly specified) |  |  |  |  | 
 |  | CCCCC(NC(=O)[C@H](CCCCN)NC(=O)C(CCCC)NC(=O)[C@H](CO)NC(=O)[C@@H](NC(=O)CNC(=O)[C@@H](NC(=O)[C@H](CO)NC(=O)[C@H](CCC(N)=O)NC(=O)[C@@H](NC(=O)[C@@H](NC(=O)[C@H](CCCCN)NC(=O)[C@@H]1CCCN1C(C)=O)[C@@H](C)CC)[C@@H](C)CC)C(C)C)[C@@H](C)CC)C(N)=O (stereo partly specified) | 13.5 µM | inactive | 23 min | 1.2 µM | inactive
 |  | CCCCC(NC(=O)[C@H](CCCCN)NC(=O)C(CCCC)NC(=O)[C@H](CO)NC(=O)[C@@H](NC(=O)CNC(=O)[C@@H]1CCCCNC(=O)CC[C@H](NC(=O)[C@H](CCCCN)NC(=O)[C@@H]2CCCN2C(C)=O)C(=O)N[C@@H]([C@@H](C)CC)C(=O)N[C@@H](CCC(N)=O)C(=O)N[C@@H](CO)C(=O)N1)[C@@H](C)CC)C(N)=O (stereo partly specified) (Ac-PKEIQSKGIS[ξNle]K[ξNle]-NH2; lactam 3-7) | 9.9 µM | inactive | 52 min | 0.9 µM | inactive
 |  | CCCCC(NC(=O)[C@H](CCCCN)NC(=O)C(CCCC)NC(=O)[C@H](CO)NC(=O)[C@@H](NC(=O)[C@@H]1CCCCNC(=O)CC[C@H](NC(=O)[C@@H](NC(=O)[C@H](CCCCN)NC(=O)[C@@H]2CCCN2C(C)=O)[C@@H](C)CC)C(=O)N[C@@H](CCC(N)=O)C(=O)NC(CO)C(=O)N[C@@H](C(C)C)C(=O)N1)[C@@H](C)CC)C(N)=O (single isomer, unassigned) | 14.4 µM | inactive | 64 min | 5.3 µM | inactive
 |  | CC[C@H](C)[C@H](NC(=O)[C@@H]1CCCCNC(=O)CC[C@H](NC(=O)[C@@H](NC(=O)[C@H](CCCCN)NC(=O)[C@@H]2CCCN2C(C)=O)[C@@H](C)CC)C(=O)N[C@@H](CCC(N)=O)C(=O)NC(CO)C(=O)N[C@@H](C(C)C)C(=O)N1)C(N)=O (single isomer, unassigned) | > 75 µM | inactive |  | > 75 µM | inactive
